According to ChEMBL document CHEMBL3734713, “4-Thiazolidinone derivatives as potent antimicrobial agents: microwave-assisted synthesis, biological evaluation and docking studies” (2015):
≈ marks a conversion by molar mass, not a printed value.

Columns and labels:
[1] = test system: Penicillium ochrochloron; experiment: Antifungal activity against Penicillium ochrochloron ATCC 9112 assessed as growth inhibition after 72 hrs at 28 degC by serial dilution method; format: functional; details: for MIC: Penicillium ochrochloron, ATCC 9112, 72 h
[2] = test system: Micrococcus flavus; experiment: Antibacterial activity against Micrococcus flavus ATCC 10240 assessed as growth inhibition after 24 hrs at 37 degC by iodonitrotetrazolium chloride staining based microdilution broth assay; format: functional; details: ATCC 10240, 24 h
[3] = test system: Enterobacter cloacae; experiment: Antibacterial activity against human isolate of Enterobacter cloacae assessed as growth inhibition after 24 hrs at 37 degC by iodonitrotetrazolium chloride staining based microdilution broth assay; format: functional
[4] = test system: Aspergillus versicolor; experiment: Antifungal activity against Aspergillus versicolor ATCC 11730 assessed as growth inhibition after 72 hrs at 28 degC by serial dilution method; format: functional; details: for MIC: Aspergillus versicolor, ATCC 11730, 72 h
[5] = target: Human immunodeficiency virus type 1 reverse transcriptase (Human immunodeficiency virus 1) (UniProt Q72547); experiment: Inhibition of HIV1 reverse transcriptase assessed as residual enzyme activity by measuring reduction in [3H]dTTP incorporation into poly(rA)-oligo(dT) at 4 uM incubated for 15 mins by scintillation counting method relative to control
[6] = test system: Escherichia coli; experiment: Antibacterial activity against Escherichia coli ATCC 35210 assessed as growth inhibition after 24 hrs at 37 degC by iodonitrotetrazolium chloride staining based microdilution broth assay; format: functional; details: ATCC 35210, 24 h
[7] = test system: Aspergillus niger; experiment: Antifungal activity against Aspergillus niger ATCC 6275 assessed as growth inhibition after 72 hrs at 28 degC by serial dilution method; format: functional; details: for MIC: Aspergillus niger, ATCC 6275, 72 h
[8] = test system: Trichoderma viride; experiment: Antifungal activity against Trichoderma viride IAM 5061 assessed as growth inhibition after 72 hrs at 28 degC by serial dilution method; format: functional; details: for MIC: Trichoderma viride, IAM 5061, 72 h
[9] = test system: Aspergillus ochraceus; experiment: Antifungal activity against Aspergillus ochraceus ATCC 12066 assessed as growth inhibition after 72 hrs at 28 degC by serial dilution method; format: functional; details: for MIC: Aspergillus ochraceus, ATCC 12066, 72 h
[10] = test system: Talaromyces funiculosus; experiment: Antifungal activity against Penicillium funiculosum ATCC 36839 assessed as growth inhibition after 72 hrs at 28 degC by serial dilution method; format: functional; details: for MIC: Talaromyces funiculosus, ATCC 36839, 72 h
[11] = test system: Salmonella typhimurium; experiment: Antibacterial activity against Salmonella typhimurium ATCC 13311 assessed as growth inhibition after 24 hrs at 37 degC by iodonitrotetrazolium chloride staining based microdilution broth assay; format: functional, Salmonella enterica subsp. enterica serovar Typhimurium; details: Salmonella enterica, ATCC 13311, 24 h
[12] = test system: Pseudomonas aeruginosa; experiment: Antibacterial activity against Pseudomonas aeruginosa ATCC 27853 assessed as growth inhibition after 24 hrs at 37 degC by iodonitrotetrazolium chloride staining based microdilution broth assay; format: functional; details: ATCC 27853, 24 h
[13] = test system: Aspergillus fumigatus; experiment: Antifungal activity against Aspergillus fumigatus ATCC 1022 assessed as growth inhibition after 72 hrs at 28 degC by serial dilution method; format: functional; details: for MIC: Aspergillus fumigatus, ATCC 1022, 72 h
[14] = test system: Candida albicans; experiment: Antifungal activity against Candida albicans ATCC 10231 assessed as growth inhibition after 72 hrs at 28 degC by serial dilution method; format: functional; details: for MIC: Candida albicans, ATCC 10231, 72 h
[15] = test system: Staphylococcus aureus; experiment: Antibacterial activity against Staphylococcus aureus ATCC 6538 assessed as growth inhibition after 24 hrs at 37 degC by iodonitrotetrazolium chloride staining based microdilution broth assay; format: functional; details: ATCC 6538, 24 h
[16] = test system: Listeria monocytogenes; experiment: Antibacterial activity against Listeria monocytogenes NCTC 7973 assessed as growth inhibition after 24 hrs at 37 degC by iodonitrotetrazolium chloride staining based microdilution broth assay; format: functional; details: NCTC 7973, 24 h
[17] = test system: Bacillus cereus; experiment: Antibacterial activity against clinical isolates of Bacillus cereus assessed as growth inhibition after 24 hrs at 37 degC by iodonitrotetrazolium chloride staining based microdilution broth assay; format: functional

MIC [2] [µM]	MIC [3] [µM]	MIC [6] [µM]	MIC [11] [µM]	MIC [12] [µM]	MIC [15] [µM]	MIC [16] [µM]	MIC [17] [µM]	Compound	MFC99.5 [1] [×10⁻² umol/ml]	MIC [1] [µM]	MBC [2] [µM]	MBC [3] [µM]	MFC99.5 [4] [×10⁻² umol/ml]	MIC [4] [µM]	MBC [6] [µM]	MBC [11] [µM]	MBC [12] [µM]	MBC [15] [µM]	MBC [16] [µM]	MBC [17] [µM]	also measured
62.5 (≈ 26.7 µg/mL)	30.6 (≈ 13.1 µg/mL)	30.6 (≈ 13.1 µg/mL)	30.6 (≈ 13.1 µg/mL)	30.6 (≈ 13.1 µg/mL)	30.6 (≈ 13.1 µg/mL)	62.5 (≈ 26.7 µg/mL)	16.3 (≈ 6.95 µg/mL)	COc1ccc(C2SCC(=O)N2c2nc(C34CC5CC(CC(C5)C3)C4)cs2)cc1 (stereo unspecified)	0.14	0.9 (≈ 0.384 µg/mL)	125 (≈ 53.3 µg/mL)	125 (≈ 53.3 µg/mL)	0.58	2.9 (≈ 1.24 µg/mL)	125 (≈ 53.3 µg/mL)	62.5 (≈ 26.7 µg/mL)	62.5 (≈ 26.7 µg/mL)	62.5 (≈ 26.7 µg/mL)	125 (≈ 53.3 µg/mL)	30.6 (≈ 13.1 µg/mL)	Activity [5]: 100%; MFC99.5 [7]: 0.58 ×10⁻² umol/ml; MIC [7]: 2.9 µM (≈ 1.24 µg/mL); MFC99.5 [8]: 0.29 ×10⁻² umol/ml; MIC [8]: 1.4 µM (≈ 0.597 µg/mL); MFC99.5 [9]: 0.29 ×10⁻² umol/ml; MIC [9]: 1.4 µM (≈ 0.597 µg/mL); MFC99.5 [10]: 0.58 ×10⁻² umol/ml; MIC [10]: 2.9 µM (≈ 1.24 µg/mL); MFC99.5 [13]: 2.34 ×10⁻² umol/ml; MIC [13]: 11.7 µM (≈ 4.99 µg/mL); MFC99.5 [14]: 2.34 ×10⁻² umol/ml; MIC [14]: 11.7 µM (≈ 4.99 µg/mL)
–	–	–	–	–	–	–	–	CC(=O)N1CCN(c2ccc(OCC3COC(Cn4ccnc4)(c4ccc(Cl)cc4Cl)O3)cc2)CC1 (stereo unspecified) [KETOCONAZOLE]	380	3800 (≈ 2020 µg/mL)	–	–	95	380 (≈ 202 µg/mL)	–	–	–	–	–	–	MFC99.5 [7]: 95 ×10⁻² umol/ml; MIC [7]: 380 µM (≈ 202 µg/mL); MFC99.5 [8]: 570 ×10⁻² umol/ml; MIC [8]: 4750 µM (≈ 2520 µg/mL); MFC99.5 [9]: 95 ×10⁻² umol/ml; MIC [9]: 380 µM (≈ 202 µg/mL); MFC99.5 [10]: 95 ×10⁻² umol/ml; MIC [10]: 380 µM (≈ 202 µg/mL); MFC99.5 [13]: 95 ×10⁻² umol/ml; MIC [13]: 380 µM (≈ 202 µg/mL); MFC99.5 [14]: 95 ×10⁻² umol/ml; MIC [14]: 380 µM (≈ 202 µg/mL)
248 (≈ 86.7 µg/mL)	248 (≈ 86.6 µg/mL)	372 (≈ 130 µg/mL)	248 (≈ 86.7 µg/mL)	744 (≈ 260 µg/mL)	248 (≈ 86.7 µg/mL)	372 (≈ 130 µg/mL)	248 (≈ 86.7 µg/mL)	CC1(C)S[C@@H]2[C@H](NC(=O)[C@H](N)c3ccccc3)C(=O)N2[C@H]1C(=O)O [AMPICILLIN]	–	–	372 (≈ 130 µg/mL)	372 (≈ 130 µg/mL)	–	–	492 (≈ 172 µg/mL)	492 (≈ 172 µg/mL)	1240 (≈ 433 µg/mL)	378 (≈ 132 µg/mL)	744 (≈ 260 µg/mL)	372 (≈ 130 µg/mL)	–
86 (≈ 50 µg/mL)	43 (≈ 25 µg/mL)	172 (≈ 100 µg/mL)	172 (≈ 100 µg/mL)	272 (≈ 158 µg/mL)	172 (≈ 100 µg/mL)	258 (≈ 150 µg/mL)	43 (≈ 25 µg/mL)	CN[C@@H]1[C@H](O[C@H]2[C@H](O[C@H]3[C@H](O)[C@@H](O)[C@H](N=C(N)N)[C@@H](O)[C@@H]3N=C(N)N)O[C@@H](C)[C@]2(O)C=O)O[C@@H](CO)[C@H](O)[C@H]1O [STREPTOMYCIN]	–	–	172 (≈ 100 µg/mL)	86 (≈ 50 µg/mL)	–	–	344 (≈ 200 µg/mL)	344 (≈ 200 µg/mL)	344 (≈ 200 µg/mL)	344 (≈ 200 µg/mL)	516 (≈ 300 µg/mL)	86 (≈ 50 µg/mL)	–
